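Exposure lasted 48 hours, with cells grown in 96-well plates and compounds tested at five concentrations. GI50 is the concentration that inhibits growth by half. The concentration for full growth arrest is given as TGI.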
Experiments:
Assay in all cases: NCI tumour cell line growth inhibition, 48 h
SW-620 colon = test system: SW-620 colon
SF-295 CNS = test system: SF-295 CNS
MALME-3M melanoma = test system: MALME-3M melanoma
KM12 colon = test system: KM12 colon
M14 melanoma = test system: M14 melanoma
RXF 393 renal = test system: RXF 393 renal
ACHN renal = test system: ACHN renal
NCI/ADR-RES ovarian = test system: NCI/ADR-RES ovarian
SF-539 CNS = test system: SF-539 CNS
CCRF-CEM leukemia = test system: CCRF-CEM leukemia
SNB-19 CNS = test system: SNB-19 CNS
K-562 leukemia = test system: K-562 leukemia
MOLT-4 leukemia = test system: MOLT-4 leukemia
HL-60(TB) leukemia = test system: HL-60(TB) leukemia
BT-549 breast = test system: BT-549 breast
MDA-MB-468 breast = test system: MDA-MB-468 breast
IGROV1 ovarian = test system: IGROV1 ovarian
SF-268 CNS = test system: SF-268 CNS
A549 NSCLC = test system: A549 NSCLC
OVCAR-4 ovarian = test system: OVCAR-4 ovarian
CAKI-1 renal = test system: CAKI-1 renal
HCT-116 colon = test system: HCT-116 colon
SNB-75 CNS = test system: SNB-75 CNS
DU-145 prostate = test system: DU-145 prostate
MDA-MB-231 breast = test system: MDA-MB-231 breast
HCT-15 colon = test system: HCT-15 colon
SR leukemia = test system: SR leukemia
NCI-H23 lung = test system: NCI-H23 lung
LOX IMVI melanoma = test system: LOX IMVI melanoma
SK-OV-3 ovarian = test system: SK-OV-3 ovarian
PC-3 prostate = test system: PC-3 prostate
TK-10 renal = test system: TK-10 renal
HOP-62 NSCLC = test system: HOP-62 NSCLC
EKVX NSCLC = test system: EKVX NSCLC
COLO 205 colon = test system: COLO 205 colon
SK-MEL-5 melanoma = test system: SK-MEL-5 melanoma
OVCAR-5 ovarian = test system: OVCAR-5 ovarian
SN12C renal = test system: SN12C renal
U251 CNS = test system: U251 CNS
UO-31 renal = test system: UO-31 renal
RPMI-8226 leukemia = test system: RPMI-8226 leukemia
NCI-H226 lung = test system: NCI-H226 lung
OVCAR-8 ovarian = test system: OVCAR-8 ovarian
NCI-H460 lung = test system: NCI-H460 lung
T-47D breast = test system: T-47D breast
OVCAR-3 ovarian = test system: OVCAR-3 ovarian
MDA-MB-435 = test system: MDA-MB-435
MCF7 breast = test system: MCF7 breast
UACC-62 melanoma = test system: UACC-62 melanoma
HCC-2998 colon = test system: HCC-2998 colon
HOP-92 NSCLC = test system: HOP-92 NSCLC
UACC-257 melanoma = test system: UACC-257 melanoma
A498 renal = test system: A498 renal
HT29 colon = test system: HT29 colon
786-0 renal = test system: 786-0 renal
HS 578T breast = test system: HS 578T breast
SK-MEL-2 melanoma = test system: SK-MEL-2 melanoma
NCI-H522 lung = test system: NCI-H522 lung
SK-MEL-28 melanoma = test system: SK-MEL-28 melanoma

COc1cc(-c2nc3cc(Cl)c(Cl)cc3[nH]2)ccc1OCc1nnc(-c2ccc(Br)cc2)o1
GI50 (SW-620 colon): 5.07 µM
TGI (SW-620 colon): > 100 µM
GI50 (SF-295 CNS): 3.13 µM
TGI (SF-295 CNS): 10.7 µM
GI50 (MALME-3M melanoma): 3.25 µM
TGI (MALME-3M melanoma): 16.4 µM
GI50 (KM12 colon): 52 µM
TGI (KM12 colon): > 100 µM
GI50 (M14 melanoma): 6.68 µM
TGI (M14 melanoma): 25.3 µM
GI50 (RXF 393 renal): 1870 nM
TGI (RXF 393 renal): 4.61 µM
GI50 (ACHN renal): 2190 nM
TGI (ACHN renal): 4.99 µM
GI50 (NCI/ADR-RES ovarian): 3.42 µM
TGI (NCI/ADR-RES ovarian): > 100 µM
GI50 (SF-539 CNS): 1810 nM
TGI (SF-539 CNS): 3.51 µM
GI50 (CCRF-CEM leukemia): 6.07 µM
TGI (CCRF-CEM leukemia): > 100 µM
GI50 (SNB-19 CNS): 14.7 µM
TGI (SNB-19 CNS): > 100 µM
GI50 (K-562 leukemia): 4.8 µM
TGI (K-562 leukemia): > 100 µM
GI50 (MOLT-4 leukemia): 3.72 µM
TGI (MOLT-4 leukemia): > 100 µM
GI50 (HL-60(TB) leukemia): 2610 nM
TGI (HL-60(TB) leukemia): 7.52 µM
GI50 (BT-549 breast): 3.2 µM
TGI (BT-549 breast): 7.74 µM
GI50 (MDA-MB-468 breast): 5.98 µM
TGI (MDA-MB-468 breast): 28.4 µM
GI50 (IGROV1 ovarian): 11.5 µM
TGI (IGROV1 ovarian): > 100 µM
GI50 (SF-268 CNS): 6.22 µM
TGI (SF-268 CNS): > 100 µM
GI50 (A549 NSCLC): 7.14 µM
TGI (A549 NSCLC): > 100 µM
GI50 (OVCAR-4 ovarian): 1920 nM
TGI (OVCAR-4 ovarian): 4.12 µM
GI50 (CAKI-1 renal): 13 µM
TGI (CAKI-1 renal): 28.3 µM
GI50 (HCT-116 colon): 4.43 µM
TGI (HCT-116 colon): 31.7 µM
GI50 (SNB-75 CNS): 1560 nM
TGI (SNB-75 CNS): 3.87 µM
GI50 (DU-145 prostate): 10.1 µM
TGI (DU-145 prostate): > 100 µM
GI50 (MDA-MB-231 breast): 2220 nM
TGI (MDA-MB-231 breast): 5.3 µM
GI50 (HCT-15 colon): 2530 nM
TGI (HCT-15 colon): 7.36 µM
GI50 (SR leukemia): 2210 nM
TGI (SR leukemia): 5.9 µM
GI50 (NCI-H23 lung): 4.99 µM
TGI (NCI-H23 lung): > 100 µM
GI50 (LOX IMVI melanoma): 2930 nM
TGI (LOX IMVI melanoma): 10.8 µM
GI50 (SK-OV-3 ovarian): 11.5 µM
TGI (SK-OV-3 ovarian): 38.3 µM
GI50 (PC-3 prostate): 4.27 µM
TGI (PC-3 prostate): > 100 µM
GI50 (TK-10 renal): 4.37 µM
TGI (TK-10 renal): 17.5 µM
GI50 (HOP-62 NSCLC): 4.17 µM
TGI (HOP-62 NSCLC): 17.8 µM
GI50 (EKVX NSCLC): 13.3 µM
TGI (EKVX NSCLC): > 100 µM
GI50 (COLO 205 colon): 24.6 µM
TGI (COLO 205 colon): > 100 µM
GI50 (SK-MEL-5 melanoma): 3.16 µM
TGI (SK-MEL-5 melanoma): 13.2 µM
GI50 (OVCAR-5 ovarian): 5.59 µM
TGI (OVCAR-5 ovarian): > 100 µM
GI50 (SN12C renal): 2560 nM
TGI (SN12C renal): 7.33 µM
GI50 (U251 CNS): 3.82 µM
TGI (U251 CNS): 20 µM
GI50 (UO-31 renal): 1890 nM
TGI (UO-31 renal): 4.61 µM
GI50 (RPMI-8226 leukemia): 2680 nM
TGI (RPMI-8226 leukemia): 8.25 µM
GI50 (NCI-H226 lung): 1820 nM
TGI (NCI-H226 lung): 4.81 µM
GI50 (OVCAR-8 ovarian): 2850 nM
TGI (OVCAR-8 ovarian): 7.78 µM
GI50 (NCI-H460 lung): 6.43 µM
TGI (NCI-H460 lung): > 100 µM
GI50 (T-47D breast): 2060 nM
TGI (T-47D breast): 4.95 µM
GI50 (OVCAR-3 ovarian): 3.33 µM
TGI (OVCAR-3 ovarian): 10.9 µM
GI50 (MDA-MB-435): 3.97 µM
TGI (MDA-MB-435): 20 µM
GI50 (MCF7 breast): 3.28 µM
TGI (MCF7 breast): 27.5 µM
GI50 (UACC-62 melanoma): 3.05 µM
TGI (UACC-62 melanoma): 13.5 µM
GI50 (HCC-2998 colon): 29.2 µM
TGI (HCC-2998 colon): > 100 µM
GI50 (HOP-92 NSCLC): 2350 nM
TGI (HOP-92 NSCLC): 7.81 µM
GI50 (UACC-257 melanoma): 11.7 µM
TGI (UACC-257 melanoma): 35.6 µM
GI50 (A498 renal): 2900 nM
TGI (A498 renal): 9.17 µM
GI50 (HT29 colon): 3.61 µM
TGI (HT29 colon): > 100 µM
GI50 (786-0 renal): 3.55 µM
TGI (786-0 renal): 13.1 µM
GI50 (HS 578T breast): 2720 nM
TGI (HS 578T breast): 8.27 µM
GI50 (SK-MEL-2 melanoma): 15.7 µM
TGI (SK-MEL-2 melanoma): 35 µM
GI50 (NCI-H522 lung): 4.53 µM
TGI (NCI-H522 lung): > 100 µM
GI50 (SK-MEL-28 melanoma): 3.59 µM
TGI (SK-MEL-28 melanoma): 19 µM
